Experimental data reported in PMC3483484 (The Protein Journal, 2012).

Tests used:
HSA = conditions: data from the literature ref 32; cited from earlier work
[1] = molecular target: T1, human serum albumin (HSA) (Homo sapiens, UniProt P02768); test: Equilibrium dialysis: individual and simultaneous binding (displacement) of 6-MP and site I markers to HSA
T1 construct: Human serum albumin (HSA), fraction V, crystallized and lyophilized; purchased Biomed (Lublin, Poland)
Procedure: Equilibrium dialysis experiment was performed with bags of 5 cm length made from cellulose tubing, 25 mm diameter when inflated (Dialysis Tubing Cellulose Membranes with molecular weight cut-off of 12 kDa, Sigma Aldrich Co). […] The tubes were closed with parafilm, and were stirred constantly at 20 rotations per minute, at 23 °C. A solution of drug(s) in the compartment B and a solution of albumin in the compartment A were allowed to equilibrate. […] The volumes of the solutions in two compartments remained constant during the dialysis procedure and were not corrected. […] Dialysis with each ligand or mixture of ligands was performed in fivefold and the average value of C b was used as binding data. Protein concentration was 1 × 10^−5 M and ligands concentration was 0.8 × 10^−5 M.
The free-ligands concentrations in compartment B at the beginning of the dialysis and after equilibrium were determined by HPLC. […] A column of LiChrospher 100 RP-18 (5 μm in 4 × 250 mm) (Merck KGaA) was used as the stationary phase. […] All solvents were filtered and degassed prior to use. The injection volume was 50 μL in all the cases. The free ligand concentration was determined using a calibration curve obtained from the concentration of dialyzed ligand in the absence of albumin.
The bound ligand concentration (Cb) was calculated by estimation of free-ligand concentration (Cf) according to the equation [57]:1 [drawing 3] where CL(b) was concentration of bound ligand, CL(f) was final concentration of ligand in buffer compartment and CL(0) was starting concentration of ligand (total ligand concentration before equilibrium dialysis).
The percent binding before and after displacement was compared by using a two-way analysis of variance for balanced data. The confidence intervals based on the residual variance were computed for each pairs of bound fraction before and after displacement.

[2] = set-up: method as in earlier work; conditions: cited from earlier work

T1 sequence (P02768 25-609): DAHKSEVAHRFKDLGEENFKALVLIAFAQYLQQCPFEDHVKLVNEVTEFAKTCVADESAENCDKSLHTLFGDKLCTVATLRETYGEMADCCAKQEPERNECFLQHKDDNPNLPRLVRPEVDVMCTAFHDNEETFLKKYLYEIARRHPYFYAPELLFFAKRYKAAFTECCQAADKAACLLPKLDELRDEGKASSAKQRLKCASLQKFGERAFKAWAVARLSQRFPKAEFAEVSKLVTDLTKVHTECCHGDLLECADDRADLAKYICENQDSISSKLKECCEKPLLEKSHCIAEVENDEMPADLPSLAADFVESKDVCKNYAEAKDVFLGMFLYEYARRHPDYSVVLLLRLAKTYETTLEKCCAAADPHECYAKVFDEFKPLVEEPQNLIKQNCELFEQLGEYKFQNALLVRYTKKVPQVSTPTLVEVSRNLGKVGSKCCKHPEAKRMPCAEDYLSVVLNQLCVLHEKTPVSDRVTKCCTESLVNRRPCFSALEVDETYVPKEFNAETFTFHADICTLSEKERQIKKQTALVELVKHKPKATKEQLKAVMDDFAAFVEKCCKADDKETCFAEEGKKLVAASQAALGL

SMILES	Primary association constant log Klit^HSA (HSA)	decrease of free fraction (Δ%) of ABE ([1]; by addition of 6-MP, versus ABE alone, p < 0.05)	Kd ([1]; from fb by Eq. (6), before displacement, HSA 1 × 10^−5 M, read-out: Primary association constant log Kexp^HSA (converted))	Bound ligand fraction (fb%) before displacement ([1]; individual binding, HSA 1 × 10^−5 M, ligand 0.8 × 10^−5 M, pH 7.4, 23 °C)	Bound ligand fraction (fb%) of site marker after displacement ([1]; simultaneous binding, in presence of 6-MP, HSA 1 × 10^−5 M, ligands 0.8 × 10^−5 M)	bound to serum proteins ([2]; humans, of the administered dose ref 39)	half-life in plasma ([2]; oral dose, humans ref 39)
CCCCOC(=O)c1ccc(N)cc1 [ABE, n-butyl p-aminobenzoate]	4.45	3.5%	17 µM	37.3 ± 0.7%	39.5 ± 0.6%		
Sc1ncnc2nc[nH]c12 [6-MP, 6-Mercaptopurine]						approximately 19%	20 to 45 min
